Assay results as given in ChEMBL document CHEMBL3822442, “Synthesis and Pharmacological Characterization of Novel Glucagon-like Peptide-2 (GLP-2) Analogues with Low Systemic Clearance” (J Med Chem, 2016).
pEC50: −log10 of the molar value.

Legend:
Format in all cases: cell-based
[1] = system: HEK293; test: Selectivity ratio of EC50 for human GLP1R expressed in HEK293 cells to EC50 for human GLP2R expressed in HEK293
[2] = target: T1, Glucagon-like peptide 2 receptor (Homo sapiens, UniProt O95838); test: Agonist activity at human GLP2R expressed in HEK293 cells after 5 hrs by luciferase reporter gene assay
T1 sequence (O95838 whole entry): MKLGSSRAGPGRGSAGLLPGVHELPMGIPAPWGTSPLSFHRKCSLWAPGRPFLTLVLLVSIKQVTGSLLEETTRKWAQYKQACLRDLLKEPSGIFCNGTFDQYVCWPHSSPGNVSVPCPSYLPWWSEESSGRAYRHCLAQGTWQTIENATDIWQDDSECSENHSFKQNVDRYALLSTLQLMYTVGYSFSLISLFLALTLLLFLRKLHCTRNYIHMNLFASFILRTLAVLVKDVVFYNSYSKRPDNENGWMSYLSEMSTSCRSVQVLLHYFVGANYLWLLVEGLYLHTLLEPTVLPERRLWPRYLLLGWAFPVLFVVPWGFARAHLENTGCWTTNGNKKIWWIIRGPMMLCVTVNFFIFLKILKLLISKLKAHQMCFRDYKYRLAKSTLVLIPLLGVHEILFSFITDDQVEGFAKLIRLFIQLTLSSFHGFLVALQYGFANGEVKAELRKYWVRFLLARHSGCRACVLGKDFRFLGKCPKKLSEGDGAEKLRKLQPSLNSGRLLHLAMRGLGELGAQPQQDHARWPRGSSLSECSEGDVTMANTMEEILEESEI

[3] = target: Glucagon-like peptide 1 receptor (Homo sapiens, UniProt P43220); test: Agonist activity at human GLP1R expressed in HEK293 cells after 5 hrs by luciferase reporter gene assay
Chain of Glucagon-like peptide 1 receptor (P43220 whole entry): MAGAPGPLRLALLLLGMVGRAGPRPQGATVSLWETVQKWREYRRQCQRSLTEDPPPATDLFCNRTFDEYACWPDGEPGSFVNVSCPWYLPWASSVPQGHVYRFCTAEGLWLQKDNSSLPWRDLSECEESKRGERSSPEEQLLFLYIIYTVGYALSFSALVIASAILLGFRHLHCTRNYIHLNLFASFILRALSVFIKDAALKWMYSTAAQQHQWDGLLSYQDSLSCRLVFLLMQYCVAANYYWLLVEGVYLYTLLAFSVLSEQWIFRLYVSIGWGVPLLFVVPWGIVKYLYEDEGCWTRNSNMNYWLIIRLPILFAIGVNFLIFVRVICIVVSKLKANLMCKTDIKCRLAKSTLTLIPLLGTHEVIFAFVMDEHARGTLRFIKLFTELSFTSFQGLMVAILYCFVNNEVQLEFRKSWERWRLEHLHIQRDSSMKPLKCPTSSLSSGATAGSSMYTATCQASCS

| pEC50 [2] | pEC50 [3] | Compound | Ratio EC50 [1] |
| --- | --- | --- | --- |
| – | – | CCCCC(NC(=O)[C@H](CCC(=O)O)NC(=O)[C@H](CC(=O)O)NC(=O)[C@H](CO)NC(=O)[C@H](Cc1ccccc1)NC(=O)[C@H](CO)NC(=O)CNC(=O)[C@H](CC(=O)O)NC(=O)CNC(=O)[C@@H](N)Cc1cnc[nH]1)C(=O)N[C@H](Cc1ccccc1)C(=O)N[C@H](C(=O)N[C@H](C(=O)N[C@@H](CC(C)C)C(=O)N[C@@H](CC(=O)O)C(=O)N[C@@H](CC(C)C)C(=O)N[C@@H](CC(C)C)C(=O)N[C@@H](C)C(=O)N[C@@H](C)C(=O)N[C@@H](CCCNC(=N)N)C(=O)N[C@@H](CC(=O)O)C(=O)N[C@@H](Cc1ccccc1)C(=O)N[C@H](C(=O)N[C@@H](CC(N)=O)C(=O)N[C@@H](Cc1c[nH]c2ccccc12)C(=O)N[C@@H](CC(C)C)C(=O)N[C@H](C(=O)N[C@@H](CCC(N)=O)C(=O)N[C@H](C(=O)N[C@@H](CCCCN)C(N)=O)[C@@H](C)O)[C@@H](C)CC)[C@@H](C)CC)[C@@H](C)CC)[C@@H](C)O (stereo not given in full) | > 12000 |
| – | – | CCCCC(NC(=O)[C@H](CCC(=O)O)NC(=O)[C@H](CC(=O)O)NC(=O)[C@H](CO)NC(=O)[C@H](Cc1ccccc1)NC(=O)[C@H](CO)NC(=O)CNC(=O)[C@H](CC(=O)O)NC(=O)CNC(=O)[C@@H](N)Cc1cnc[nH]1)C(=O)N[C@H](Cc1ccccc1)C(=O)N[C@H](C(=O)N[C@H](C(=O)N[C@@H](CC(C)C)C(=O)N[C@@H](CC(=O)O)C(=O)N[C@@H](CC(C)C)C(=O)N[C@@H](CC(C)C)C(=O)N[C@@H](C)C(=O)N[C@@H](C)C(=O)N[C@@H](CCCNC(=N)N)C(=O)N[C@@H](CC(=O)O)C(=O)N[C@@H](Cc1ccccc1)C(=O)N[C@H](C(=O)N[C@@H](CC(N)=O)C(=O)N[C@@H](Cc1c[nH]c2ccccc12)C(=O)N[C@@H](CC(C)C)C(=O)N[C@H](C(=O)N[C@@H](CCC(N)=O)C(=O)N[C@H](C(=O)N[C@@H](CCCCN)C(=O)N[C@H](C(=O)N[C@H](C(=O)N[C@@H](CC(=O)O)C(N)=O)[C@@H](C)O)[C@@H](C)CC)[C@@H](C)O)[C@@H](C)CC)[C@@H](C)CC)[C@@H](C)CC)[C@@H](C)O (stereo not given in full) | > 33000 |
| – | – | CCCCC(NC(=O)[C@H](CCC(=O)O)NC(=O)[C@H](CC(=O)O)NC(=O)[C@H](CO)NC(=O)[C@H](Cc1ccccc1)NC(=O)[C@H](CO)NC(=O)CNC(=O)[C@H](CC(=O)O)NC(=O)CNC(=O)[C@@H](N)Cc1cnc[nH]1)C(=O)N[C@H](Cc1ccccc1)C(=O)N[C@H](C(=O)N[C@H](C(=O)N[C@@H](CC(C)C)C(=O)N[C@@H](CC(=O)O)C(=O)N[C@@H](CC(C)C)C(=O)N[C@@H](CC(C)C)C(=O)N[C@@H](C)C(=O)N[C@@H](C)C(=O)N[C@@H](CCCNC(=N)N)C(=O)N[C@@H](CC(=O)O)C(=O)N[C@@H](Cc1ccccc1)C(=O)N[C@H](C(=O)N[C@@H](CC(N)=O)C(=O)N[C@@H](Cc1c[nH]c2ccccc12)C(=O)N[C@@H](CC(C)C)C(=O)N[C@H](C(=O)N[C@@H](CCC(N)=O)C(=O)N[C@H](C(=O)N[C@@H](CCCCN)C(=O)N[C@H](C(=O)N[C@H](C(=O)N[C@@H](CC(=O)O)C(=O)NCC)[C@@H](C)O)[C@@H](C)CC)[C@@H](C)O)[C@@H](C)CC)[C@@H](C)CC)[C@@H](C)CC)[C@@H](C)O (stereo not given in full) | > 20000 |
| 10.52 | < 6.00 | CCCC[C@H](NC(=O)[C@H](CCC(=O)O)NC(=O)[C@H](CC(=O)O)NC(=O)[C@H](CO)NC(=O)[C@H](Cc1ccccc1)NC(=O)[C@H](CO)NC(=O)CNC(=O)[C@H](CC(=O)O)NC(=O)CNC(=O)[C@@H](N)Cc1cnc[nH]1)C(=O)N[C@H](Cc1ccccc1)C(=O)N[C@H](C(=O)N[C@H](C(=O)N[C@@H](CC(C)C)C(=O)N[C@@H](CC(=O)O)C(=O)N[C@@H](CC(C)C)C(=O)N[C@@H](CC(C)C)C(=O)N[C@@H](C)C(=O)N[C@@H](C)C(=O)N[C@@H](CCCNC(=N)N)C(=O)N[C@@H](CC(=O)O)C(=O)N[C@@H](Cc1ccccc1)C(=O)N[C@H](C(=O)N[C@@H](CC(N)=O)C(=O)N[C@@H](Cc1c[nH]c2ccccc12)C(=O)N[C@@H](CC(C)C)C(=O)N[C@H](C(=O)N[C@@H](CCC(N)=O)C(=O)N[C@H](C(=O)N[C@@H](CCCCN)C(=O)N[C@H](C(=O)N[C@H](C(=O)N[C@@H](CC(=O)O)C(=O)NCCOCCOCCOCCOCCC(N)=O)[C@@H](C)O)[C@@H](C)CC)[C@@H](C)O)[C@@H](C)CC)[C@@H](C)CC)[C@@H](C)CC)[C@@H](C)O | – |
